Test results taken from patent US20250230193A1, “CYCLIC COMPOUND HAVING SELECTIVE KRAS INHIBITORY EFFECT ON HRAS AND NRAS” (CHUGAI SEIYAKU KABUSHIKI KAISHA, priority 2022, published 2025).
*1 amine or outer side, *2 acyl side, *3 side chain or, on linkers, in order; H or OH if unused. Where a SMILES comes first, the peptide text is derived from it. Bridges are numbered along the chain shown (N, C = ends). [ ]: non-standard residue; d: D form. The star is where a group is joined. hPhe(3-Cl-4-CF3) = N[C@@H](CCc1ccc(C(F)(F)F)c(Cl)c1)C(=O)O; X11 = C=CCN([C@@H](Cc1ccc(C(F)(F)F)cc1)C(=O)[*:2])[*:1]; NPrPhe(4-CF3) = CCCN[C@@H](Cc1ccc(C(F)(F)F)cc1)C(=O)O; X48 = C=CCCN([C@@H](Cc1ccc(C)cc1)C(=O)[*:2])[*:1]; NMeGly(cPent) = CN[C@H](C(=O)O)C1CCCC1; NMeD = CN[C@@H](CC(=O)O)C(=O)O; NMeL = CN[C@@H](CC(C)C)C(=O)O; Morpholide = C1CN(*)CCO1; NMeA = CN[C@@H](C)C(=O)O; Ac5c = NC1(C(=O)O)CCCC1; Aze = O=C(O)[C@@H]1CCN1; Sar = CNCC(=O)O

Experiments:
[1] = target: GDP-bound NRAS wild-type protein (Homo sapiens, UniProt P01111); assay: Binding to NRAS by surface plasmon resonance (SPR), Single Cycle Kinetics; details: for NRAS/KRAS (ratio of KD value for NRAS to KD value for KRAS): GDP-bound NRAS wild-type vs GDP-bound KRAS wild-type
GDP-bound NRAS wild-type protein, sequence (P01111 whole entry): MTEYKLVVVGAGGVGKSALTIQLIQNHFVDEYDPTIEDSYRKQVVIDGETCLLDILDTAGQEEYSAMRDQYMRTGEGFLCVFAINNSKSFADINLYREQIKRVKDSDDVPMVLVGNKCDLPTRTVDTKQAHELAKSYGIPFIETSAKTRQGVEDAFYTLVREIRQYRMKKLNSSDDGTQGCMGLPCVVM

[2] = target: GDP-bound HRAS wild-type protein (Homo sapiens, UniProt P01112); assay: Binding to HRAS by surface plasmon resonance (SPR), Single Cycle Kinetics; details: for HRAS/KRAS (ratio of KD value for HRAS to KD value for KRAS): GDP-bound HRAS wild-type vs GDP-bound KRAS wild-type
GDP-bound HRAS wild-type protein, sequence (P01112 whole entry): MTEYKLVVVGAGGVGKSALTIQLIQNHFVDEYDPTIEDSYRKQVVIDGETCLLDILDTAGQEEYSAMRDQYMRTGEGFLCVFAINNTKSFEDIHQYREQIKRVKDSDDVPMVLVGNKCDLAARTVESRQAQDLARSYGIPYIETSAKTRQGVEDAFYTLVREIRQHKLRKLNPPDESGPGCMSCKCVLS

[3] = SPR, GDP-bound wild-type proteins

Compound: CCC[C@H]1C(=O)N[C@@H]([C@@H](C)CC)C(=O)N(C)CC(=O)N(C)[C@H]2C/C=C\CCN(C2=O)[C@@H](Cc2ccc(C(F)(F)F)cc2)C(=O)N(C)CC(=O)N[C@@H](CCc2ccc(Cl)c(Cl)c2)C(=O)N2C[C@H](OCC)C[C@H]2C(=O)NC2(CC(C)(C)C2)C(=O)N(C)[C@@H](CC(C)(C)C)C(=O)N(C)[C@H](C(=O)N(C)C)CC(=O)N1C [PP2738]
- NRAS/KRAS (ratio of KD value with respect to GDP-bound NRAS wild-type protein to KD value with respect to KRAS) ([1]; class symbols): AA (a compound having 20 or more is denoted as AA)
- HRAS/KRAS (ratio of KD value with respect to GDP-bound HRAS wild-type protein to KD value with respect to KRAS) ([2]; class symbols): A (a compound having 10 or more and less than 20 is denoted as A)

Compound: CCCN1C(=O)CN(C)C(=O)[C@H](C)NC(=O)[C@H]([C@@H](C)CC)NC(=O)[C@H](CC(C)C)N(C)C(=O)C[C@@H](C(=O)N2CCOCC2)N(C)C(=O)[C@H](C2CCCC2)N(C)C(=O)C2(CCCC2)NC(=O)[C@@H]2CCCN2C(=O)[C@H](CCc2ccc(C(F)(F)F)c(Cl)c2)NC(=O)CN(C)C(=O)[C@@H]1Cc1ccc(C(F)(F)F)cc1 [PP1971] ([NMeL]IA[Sar][NPrPhe(4-CF3)][Sar][hPhe(3-Cl-4-CF3)]P[Ac5c][NMeGly(cPent)][NMeD]-Morpholide; lactam N-11)
- NRAS/KRAS (ratio of KD value for NRAS to KD value for KRAS) ([1]; SPR): B (a compound having 3 or more and less than 10 is denoted as B)
- HRAS/KRAS (ratio of KD value for HRAS to KD value for KRAS) ([2]; SPR): B (a compound having 3 or more and less than 10 is denoted as B)

Compound: CC[C@H](C)[C@@H]1NC(=O)[C@H](C)N(C)C(=O)C[C@@H](C(=O)N2CCOCC2)N(C)C(=O)[C@H](C2CCCC2)N(C)C(=O)C2(CCCC2)NC(=O)[C@@H]2CCCN2C(=O)[C@H](CCc2cc(F)c(C(F)(F)F)c(F)c2)NC(=O)CN(C)C(=O)[C@H](Cc2ccc(C(F)(F)F)cc2)N2CCCCC[C@@H](C2=O)N(C)C(=O)CN(C)C1=O [PP0487]
- NRAS/KRAS (ratio of KD value with respect to GDP-bound NRAS wild-type protein to KD value with respect to KRAS) ([1]; SPR): B (a compound having 3 or more and less than 10 is denoted as B)
- HRAS/KRAS (ratio of KD value with respect to GDP-bound HRAS wild-type protein to KD value with respect to KRAS) ([2]; SPR): B (a compound having 3 or more and less than 10 is denoted as B)

Compound: C=CCCN1C(=O)[C@@H]2CCN2C(=O)[C@H](C)N(C)C(=O)[C@H]([C@@H](C)CC)NC(=O)[C@H](CC(C)C)N(C)C(=O)C[C@@H](C(=O)N2CCOCC2)N(C)C(=O)[C@H](C2CCCC2)N(C)C(=O)C2(CCCC2)NC(=O)[C@@H]2CCCN2C(=O)[C@H](CCc2ccc(C(F)(F)F)c(Cl)c2)NC(=O)CN(C)C(=O)[C@@H]1Cc1ccc(C)cc1 [PP0089] ([NMeL]I[NMeA][Aze][X48][Sar][hPhe(3-Cl-4-CF3)]P[Ac5c][NMeGly(cPent)][NMeD]-Morpholide; lactam N-11)
- NRAS/KRAS (ratio of KD for GDP-bound NRAS wild-type to KD for KRAS) ([1]; SPR): C (A compound having a KD ratio of 0.1 or more and less than 3 is denoted as C)
- HRAS/KRAS (ratio of KD for GDP-bound HRAS wild-type to KD for KRAS) ([2]; SPR): B (a compound having 3 or more and less than 10 is denoted as B)

Compound: CCO[C@@H]1C[C@H]2C(=O)N(C)C3(CC(C)(C)C3)C(=O)N(C)[C@@H](C3CCCC3)C(=O)N(C)[C@H](C(=O)N(C)C)CC(=O)N(C)[C@H]3CCCCCc4ccc(cc4)C[C@@H](C(=O)N(C)CC(=O)N[C@@H](CCc4ccc(C(F)(F)F)c(OC)c4)C(=O)N2C1)N1CC/C=C\C[C@@H](C1=O)N(C)C(=O)CN(C)C(=O)[C@H]([C@@H](C)CC)NC3=O [PP3091]
- NRAS/KRAS (ratio of KD value with respect to GDP-bound NRAS wild-type protein to KD value with respect to KRAS) [1, 3]: A (a compound having 10 or more and less than 20 is denoted as A)
- HRAS/KRAS (ratio of KD value with respect to GDP-bound HRAS wild-type protein to KD value with respect to KRAS) [2, 3]: B (a compound having 3 or more and less than 10 is denoted as B)

Compound: C=CCN1C(=O)CN(C)C(=O)CN(C)C(=O)[C@H]([C@@H](C)CC)NC(=O)[C@H](CC(C)C)N(C)C(=O)C[C@@H](C(=O)N2CCOCC2)N(C)C(=O)[C@H](C2CCCC2)N(C)C(=O)C2(CCCC2)NC(=O)[C@@H]2CCCN2C(=O)[C@H](CCc2ccc(C(F)(F)F)c(Cl)c2)NC(=O)CN(C)C(=O)[C@@H]1Cc1ccc(C(F)(F)F)cc1 [PP0128] ([NMeL]I[Sar][Sar][X11][Sar][hPhe(3-Cl-4-CF3)]P[Ac5c][NMeGly(cPent)][NMeD]-Morpholide; lactam N-11)
- NRAS/KRAS (ratio of KD for GDP-bound NRAS wild-type to KD for KRAS) ([1]; SPR): C (A compound having a KD ratio of 0.1 or more and less than 3 is denoted as C)
- HRAS/KRAS (ratio of KD for GDP-bound HRAS wild-type to KD for KRAS) ([2]; SPR): C (A compound having a KD ratio of 0.1 or more and less than 3 is denoted as C)

Compound: CC[C@H](C)[C@@H]1NC(=O)[C@H](CC)N(C)C(=O)C[C@@H](C(=O)N(C)C)N(C)C(=O)[C@H](C2CCCC2)N(C)C(=O)C2(CC(C)(C)C2)NC(=O)[C@H](CC)N(C)C(=O)[C@H](CCc2cc(F)c(C(F)(F)F)c(F)c2)NC(=O)CN(C)C(=O)[C@H](Cc2ccc(C(F)(F)F)cc2)N2CC/C=C\C[C@@H](C2=O)N(C)C(=O)CN(C)C1=O [PP1935]
- NRAS/KRAS (ratio of KD value for NRAS to KD value for KRAS) ([1]; SPR): A (a compound having 10 or more and less than 20 is denoted as A)
- HRAS/KRAS (ratio of KD value for HRAS to KD value for KRAS) ([2]; SPR): A (a compound having 10 or more and less than 20 is denoted as A)
